Assay [1] addresses T1, recombinant human 17β-HSD1 (Homo sapiens, UniProt P14061).
T1 construct: made in house; host or cells: Sd9 (Sf9) insect cells, baculovirus (Bac to Bac Expression System)
T1 sequence (P14061 1-328): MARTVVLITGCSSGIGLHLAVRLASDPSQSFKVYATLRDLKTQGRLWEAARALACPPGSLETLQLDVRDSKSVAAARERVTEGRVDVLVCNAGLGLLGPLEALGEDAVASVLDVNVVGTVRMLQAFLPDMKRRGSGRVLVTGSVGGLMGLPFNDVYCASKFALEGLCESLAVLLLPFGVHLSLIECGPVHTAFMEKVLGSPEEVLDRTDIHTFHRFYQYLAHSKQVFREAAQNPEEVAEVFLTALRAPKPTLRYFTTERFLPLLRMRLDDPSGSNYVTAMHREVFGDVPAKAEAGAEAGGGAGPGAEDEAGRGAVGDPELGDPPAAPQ
Put plainly: Inhibition of recombinant human 17β-HSD1. It counts as biochemical. The settings on record: inhibitor at 1 μM; 30 nM estrone, 1 mM NADPH, 30 min at RT; read-out: 17β-HDS1 Inhibition % at 1 μM. In short, it runs like this:
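Microsomal enzyme from baculovirus-infected insect cells (1 μg/ml) incubated 30 min at RT in 20 mM KH2PO4 pH 7.4 with 30 nM ³H-estrone and 1 mM NADPH, inhibitor at 1 μM or 0.1 μM, 1% DMSO. TCA-stopped; estrone/estradiol separated by radio-HPLC; % inhibition = 100 − % conversion.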

Assay [2] concerns the target T2, recombinant human 17β-HSD2 (Homo sapiens, UniProt P37059).
T2 construct: made in house; host or cells: Sd9 (Sf9) insect cells, baculovirus (Bac to Bac Expression System)
T2 sequence (P37059 1-387): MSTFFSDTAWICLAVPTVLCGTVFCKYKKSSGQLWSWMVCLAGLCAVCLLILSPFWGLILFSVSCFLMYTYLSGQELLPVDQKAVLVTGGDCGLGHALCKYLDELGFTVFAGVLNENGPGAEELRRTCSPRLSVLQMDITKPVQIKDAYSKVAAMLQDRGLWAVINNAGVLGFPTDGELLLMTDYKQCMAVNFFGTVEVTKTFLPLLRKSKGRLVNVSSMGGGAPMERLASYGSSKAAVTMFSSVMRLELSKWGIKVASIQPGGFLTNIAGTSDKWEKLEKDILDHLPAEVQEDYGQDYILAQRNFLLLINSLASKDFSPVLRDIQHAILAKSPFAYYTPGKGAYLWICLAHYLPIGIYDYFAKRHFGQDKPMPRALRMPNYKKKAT
Put plainly: Inhibition of recombinant human 17β-HSD2. It counts as biochemical. The note with it: inhibitor at 1 μM; 50 nM estradiol, 1 mM NADH, 30 min at RT; read-out: 17β-HSD2 Inhibition % at 1 μM. In short, it runs like this:
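Membrane extract of baculovirus-expressed enzyme in Sf9 cells (4 μg/ml) incubated in 20 mM KH2PO4 pH 8.5 with 50 nM estradiol (³H-tracer) and 1 mM NADH, 30 min at RT, 1% DMSO, inhibitor at 1 μM or 0.1 μM. TCA-stopped; estradiol-to-estrone conversion by radio-HPLC; % inhibition = 100 − % conversion.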

This passage reports inhibition results from US10377791B2, “Therapeutically active estratrienthiazole derivatives as inhibitors of 17 B-hydroxysteroid dehydrogenase, type 1” (FORENDO PHARMA LTD, priority 2013, dated 2019).

`Cc1cnc(NC(=O)CC[C@@H]2CC(=O)[C@@]3(C)CCC4c5ccc(O)c(Cl)c5CCC4C23)s1` (stereo partly drawn) [Compound 63, 3-((13S,15R)-4-chloro-3-hydroxy-13-methyl-17-oxo-7,8,9,11,12,13,14,15,16,17-decahydro-6H-cyclopenta[a]phenanthren-15-yl)-N-(5-methylthiazol-2-yl)propanamide]: the inhibition at 1 µM in assay [1] came out at 99%; in assay [2], 21%.

As for `Cc1cnc(NC(=O)CC[C@@H]2CC(=O)[C@@]3(C)CCC4c5cc(Cl)c(O)cc5CCC4C23)s1` (stereo partly drawn) [Compound 64, 3-((13S,15R)-2-chloro-3-hydroxy-13-methyl-17-oxo-7,8,9,11,12,13,14,15,16,17-decahydro-6H-cyclopenta[a]phenanthren-15-yl)-N-(5-methylthiazol-2-yl)propanamide], the inhibition at 1 µM in assay [1] was 98%; in assay [2], 5%.

Consider `Cc1cnc(NC(=O)CC[C@@H]2CC(=O)[C@@]3(C)CCC4c5ccc(O)c(F)c5CCC4C23)s1` (stereo partly drawn) [Compound 66, 3-((13S,15R)-4-fluoro-3-hydroxy-13-methyl-17-oxo-7,8,9,11,12,13,14,15,16,17-decahydro-6H-cyclopenta[a]phenanthren-15-yl)-N-(5-methylthiazol-2-yl)propanamide], for which the inhibition at 1 µM in assay [1] came to 98%; in assay [2], 8%.

As for `Cc1cnc(NC(=O)CC[C@@H]2CC(=O)[C@@]3(C)CCC4c5cc(F)c(O)cc5CCC4C23)s1` (stereo partly drawn) [Compound 67, 3-((13S,15R)-2-fluoro-3-hydroxy-13-methyl-17-oxo-7,8,9,11,12,13,14,15,16,17-decahydro-6H-cyclopenta[a]phenanthren-15-yl)-N-(5-methylthiazol-2-yl)propanamide], the inhibition at 1 µM stood at 98% in assay [1] and 6% in assay [2].

As for `Cc1cnc(NC(=O)CC[C@@H]2CC(=O)[C@@]3(C)CCC4c5cc(O)c(O)cc5CCC4C23)s1` (stereo partly drawn) [Compound 68, 3-((13S,15R)-2,3-dihydroxy-13-methyl-17-oxo-7,8,9,11,12,13,14,15,16,17-decahydro-6H-cyclopenta[a]phenanthren-15-yl)-N-(5-methylthiazol-2-yl)propanamide], the inhibition at 1 µM in assay [1] was determined as 88%; in assay [2], 3%.

`CC(=O)Oc1cc2c(cc1F)C1CC[C@]3(C)C(=O)C[C@@H](CCC(=O)Nc4ncc(C)s4)C3C1CC2` (stereo partly drawn) [Compound 69, (13S,15R)-2-fluoro-13-methyl-15-(3-((5-methylthiazol-2-yl)amino)-3-oxopropyl)-17-oxo-7,8,9,11,12,13,14,15,16,17-decahydro-6H-cyclopenta[a]phenanthren-3-yl acetate]: the inhibition at 1 µM in assay [1] stood at 57%; in assay [2] it was 4%.

Regarding `Cc1cnc(NC(=O)CC[C@@H]2CC(=O)[C@@]3(C)CCC4c5cc(Br)c(O)c(F)c5CCC4C23)s1` (stereo partly drawn) [Compound 71, 3-((13S,15R)-2-bromo-4-fluoro-3-hydroxy-13-methyl-17-oxo-7,8,9,11,12,13,14,15,16,17-decahydro-6H-cyclopenta[a]phenanthren-15-yl)-N-(5-methylthiazol-2-yl)propanamide], the values for the inhibition at 1 µM in assay [1] and in assay [2] were 91% and 7%, respectively.

With `Cc1cnc(NC(=O)CC[C@@H]2CC(=O)[C@@]3(C)CCC4c5cc(F)c(O)c(Br)c5CCC4C23)s1` (stereo partly drawn) [Compound 72, 3-((13S,15R)-4-bromo-2-fluoro-3-hydroxy-13-methyl-17-oxo-7,8,9,11,12,13,14,15,16,17-decahydro-6H-cyclopenta[a]phenanthren-15-yl)-N-(5-methylthiazol-2-yl)propanamide], the inhibition at 1 µM came out at 89% in assay [1] and 10% in assay [2].

For the compound `Cc1cnc(NC(=O)CC[C@@H]2CC(=O)[C@@]3(C)CCC4c5cc([N+](=O)[O-])c(O)c(F)c5CCC4C23)s1` (stereo partly drawn) [Compound 73, 3-((13S,15R)-4-fluoro-3-hydroxy-13-methyl-2-nitro-17-oxo-7,8,9,11,12,13,14,15,16,17-decahydro-6H-cyclopenta[a]phenanthren-15-yl)-N-(5-methylthiazol-2-yl)propanamide], the inhibition at 1 µM in assay [1] turned out to be 90%; in assay [2], 2%.

Take `Cc1cnc(NC(=O)CC[C@@H]2CC(=O)[C@@]3(C)CCC4c5cc([N+](=O)[O-])c(O)c(Cl)c5CCC4C23)s1` (stereo partly drawn) [Compound 75, 3-((13S,15R)-4-chloro-3-hydroxy-13-methyl-2-nitro-17-oxo-7,8,9,11,12,13,14,15,16,17-decahydro-6H-cyclopenta[a]phenanthren-15-yl)-N-(5-methylthiazol-2-yl)propanamide]: the inhibition at 1 µM in assay [1] came out at 89%; in assay [2], 2%.

Take `Cc1cnc(NC(=O)CC[C@@H]2CC(=O)[C@@]3(C)CCC4c5cc6ncoc6c(Cl)c5CCC4C23)s1` (stereo partly drawn) [Compound 77, 3-((3R,12aS)-6-chloro-12a-methyl-1-oxo-2,3,3a,3b,4,5,10b,11,12,12a-decahydro-1H-cyclopenta[7,8]phenanthro[3,2-d]oxazol-3-yl)-N-(5-methylthiazol-2-yl)propanamide]: the inhibition at 1 µM is 87% in assay [1] and 0% in assay [2].

As to `Cc1cnc(NC(=O)CC[C@@H]2CC(=O)[C@@]3(C)CCC4c5cc6ncoc6c(F)c5CCC4C23)s1` (stereo partly drawn) [Compound 78, 3-((3R,12aS)-6-fluoro-12a-methyl-1-oxo-2,3,3a,3b,4,5,10b,11,12,12a-decahydro-1H-cyclopenta[7,8]phenanthro[3,2-d]oxazol-3-yl)-N-(5-methylthiazol-2-yl)propanamide], the inhibition at 1 µM turned out to be 91% in assay [1] and 1% in assay [2].

For the compound `Cc1cnc(NC(=O)CC[C@@H]2CC(=O)[C@@]3(C)CCC4c5ccc(OS(=O)(=O)C(F)(F)F)cc5CCC4C23)s1` (stereo partly drawn) [Compound 79, (13S,15R)-13-methyl-15-(3-((5-methylthiazol-2-yl)amino)-3-oxopropyl)-17-oxo-7,8,9,11,12,13,14,15,16,17-decahydro-6H-cyclopenta[a]phenanthren-3-yl trifluoromethanesulfonate], the results for the inhibition at 1 µM in assay [1] and in assay [2] were 72% and 0%, respectively.

With `Cc1cnc(NC(=O)CC[C@@H]2CC(=O)[C@@]3(C)CCC4c5cc([N+](=O)[O-])ccc5CCC4C23)s1` (stereo partly drawn) [Compound 84, 3-((13S,15R)-13-methyl-2-nitro-17-oxo-7,8,9,11,12,13,14,15,16,17-decahydro-6H-cyclopenta[a]phenanthren-15-yl)-N-(5-methylthiazol-2-yl)propanamide], the results for the inhibition at 1 µM in assay [1] and in assay [2] were 93% and 1%, respectively.

With `Cc1cnc(NC(=O)CC[C@@H]2CC(=O)[C@@]3(C)CCC4c5cccc([N+](=O)[O-])c5CCC4C23)s1` (stereo partly drawn) [Compound 85, 3-((13S,15R)-13-methyl-4-nitro-17-oxo-7,8,9,11,12,13,14,15,16,17-decahydro-6H-cyclopenta[a]phenanthren-15-yl)-N-(5-methylthiazol-2-yl)propanamide], the inhibition at 1 µM amounted to 93% in assay [1] and 2% in assay [2].

As for `Cc1cnc(NC(=O)CC[C@@H]2CC(=O)[C@@]3(C)CCC4c5cc(F)ccc5CCC4C23)s1` (stereo partly drawn) [Compound 86, 3-((13S,15R)-2-fluoro-13-methyl-17-oxo-7,8,9,11,12,13,14,15,16,17-decahydro-6H-cyclopenta[a]phenanthren-15-yl)-N-(5-methylthiazol-2-yl)propanamide], the inhibition at 1 µM came to 92% in assay [1] and 0% in assay [2].

As for `Cc1cnc(NC(=O)CC[C@@H]2CC(=O)[C@@]3(C)CCC4c5cc(N)ccc5CCC4C23)s1` (stereo partly drawn) [Compound 87, 3-((13S,15R)-2-amino-13-methyl-17-oxo-7,8,9,11,12,13,14,15,16,17-decahydro-6H-cyclopenta[a]phenanthren-15-yl)-N-(5-methylthiazol-2-yl)propanamide], the inhibition at 1 µM in assay [1] came to 87%; in assay [2], 2%.

As to `Cc1cnc(NC(=O)CC[C@@H]2CC(=O)[C@@]3(C)CCC4c5cc(O)ccc5CCC4C23)s1` (stereo partly drawn) [Compound 88, 3-((13S,15R)-2-hydroxy-13-methyl-17-oxo-7,8,9,11,12,13,14,15,16,17-decahydro-6H-cyclopenta[a]phenanthren-15-yl)-N-(5-methylthiazol-2-yl)propanamide], the inhibition at 1 µM in assay [1] came out at 93%; in assay [2] it was 1%.
